# Test results taken from patent publication US6451791B1, “Amidoaromatic ring sulfonamide hydroxamic acid compounds” (Monsanto Company, priority 1997, dated 2002).
# Structures can show the parent of a compound that is named as a salt.
# Columns and labels:
# [1] = target: T1, hMMP-13 (Homo sapiens, UniProt P45452); experiment: In vitro metalloprotease inhibition, fluorogenic MCA peptide substrate; format: biochemical; conditions: recombinant human enzyme, APMA activated, room temperature, pH 7.5
# T1 construct: made in house
# Procedure: (§1) The compounds prepared in the manner described in Examples 1 to 15 were assayed for activity by an in vitro assay. Following the procedures of Knight et al., FEBS Lett. 296(3):263 (1992). Briefly, 4-aminophenylmercuric acetate (APMA) or trypsin activated MMPs were incubated with various concentrations of the inhibitor compound at room temperature for 5 minutes.
# (§2) More specifically, recombinant human MMP-13 and MMP-1 enzymes were prepared in laboratories of the assignee. MMP-13 was expressed in baculovirus as a proenzyme, and purified first over a heparin agarose column and then over a chelating zinc chloride column. The proenzyme was activated by APMA for use in the assay. MMP-1 expressed in transfected HT-1080 cells was provided by Dr. Howard Welgus of Washington University, St. Louis, Mo. The enzyme was also activated using APMA and was then purified over a hydroxamic acid column.
# (§3) The enzyme substrate is a methoxycoumarin-containing polypeptide having the following sequence:
# (§4) MCA-ProLeuGlyLeuDpaAlaArgNH^2, wherein MCA is methoxycoumarin and Dpa is 3-(2,4-dinitrophenyl)-L-2,3-diaminopropionyl alanine. This substrate is commercially available from Baychem as product M-1895.
# (§5) The buffer used for assays contained 100 mM Tris-HCl, 100 mM NaCl, 10 mM CaCl2 and 0.05 percent polyethyleneglycol (23) lauryl ether at a pH value of 7.5. Assays were carried out at room temperature, and dimethyl sulfoxide (DMSO) at a final concentration of 1 percent was used to dissolve inhibitor compound.
# (§6) The assayed inhibitor compound in DMSO/buffer solution was compared to an equal amount of DMSO/buffer with no inhibitor as control using Microfluor™ White Plates (Dynatech). The inhibitor or control solution was maintained in the plate for 10 minutes and the substrate was added to provide a final concentration of 4 μM.
# (§7) In the absence of inhibitor activity, a fluorogenic peptide was cleaved at the gly-leu peptide bond, separating the highly fluorogenic peptide from a 2,4-dinitrophenyl quencher, resulting in an increase of fluorescence intensity (excitation at 328 nm/emission at 415 nm). Inhibition was measured as a reduction in fluorescent intensity as a function of inhibitor concentration, using a Perkin Elmer L550 plate reader. The IC50 values were calculated from those values. The results are set forth in the Inhibition Table below as Table 9, reported in terms of IC50.
# [2] = target: T2, hMMP-1 (Homo sapiens, UniProt P03956); experiment: as above; format: biochemical; conditions: recombinant human enzyme, APMA activated, room temperature, pH 7.5
# T2 construct: made in house; host or cells: transfected HT-1080 cells (provided by Dr. Howard Welgus, Washington University)
# T2 sequence (P03956 100-469): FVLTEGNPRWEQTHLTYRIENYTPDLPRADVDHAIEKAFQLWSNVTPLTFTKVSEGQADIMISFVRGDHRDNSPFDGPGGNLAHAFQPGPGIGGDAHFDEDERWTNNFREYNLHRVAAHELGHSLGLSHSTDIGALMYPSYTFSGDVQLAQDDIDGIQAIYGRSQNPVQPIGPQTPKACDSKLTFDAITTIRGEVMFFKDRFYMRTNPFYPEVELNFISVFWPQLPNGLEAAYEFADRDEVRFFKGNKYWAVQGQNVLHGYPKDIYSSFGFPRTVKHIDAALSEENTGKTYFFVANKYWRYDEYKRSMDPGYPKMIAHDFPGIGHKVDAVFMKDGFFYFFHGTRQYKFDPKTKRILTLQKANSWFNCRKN
# Procedure: as §1, §2, §3, §4, §5, §6, §7
# [3] = target: hMMP-9 (Homo sapiens, UniProt P14780); experiment: as above; format: biochemical; conditions: room temperature, pH 7.5
# Chain of hMMP-9 (P14780 107-707 limits assumed): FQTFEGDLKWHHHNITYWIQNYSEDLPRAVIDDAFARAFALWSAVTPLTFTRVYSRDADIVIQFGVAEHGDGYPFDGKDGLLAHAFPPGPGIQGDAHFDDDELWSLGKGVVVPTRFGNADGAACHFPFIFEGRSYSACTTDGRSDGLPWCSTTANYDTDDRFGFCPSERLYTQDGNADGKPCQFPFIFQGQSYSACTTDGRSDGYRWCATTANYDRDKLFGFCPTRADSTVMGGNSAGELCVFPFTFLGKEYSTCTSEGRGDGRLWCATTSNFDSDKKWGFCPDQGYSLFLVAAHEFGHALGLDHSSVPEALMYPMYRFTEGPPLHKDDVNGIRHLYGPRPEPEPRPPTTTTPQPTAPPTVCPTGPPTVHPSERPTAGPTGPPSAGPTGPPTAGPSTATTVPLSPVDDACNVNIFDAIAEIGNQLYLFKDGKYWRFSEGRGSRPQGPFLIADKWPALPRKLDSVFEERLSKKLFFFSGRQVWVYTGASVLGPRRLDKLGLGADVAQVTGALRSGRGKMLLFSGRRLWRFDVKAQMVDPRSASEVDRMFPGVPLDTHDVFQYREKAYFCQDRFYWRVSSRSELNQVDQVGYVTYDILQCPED
# Procedure: as §1, §3, §4, §5, §6, §7
# [4] = target: hMMP-8 (Homo sapiens, UniProt P22894); experiment: as above; format: biochemical; conditions: room temperature, pH 7.5
# Chain of hMMP-8 (P22894 101-467): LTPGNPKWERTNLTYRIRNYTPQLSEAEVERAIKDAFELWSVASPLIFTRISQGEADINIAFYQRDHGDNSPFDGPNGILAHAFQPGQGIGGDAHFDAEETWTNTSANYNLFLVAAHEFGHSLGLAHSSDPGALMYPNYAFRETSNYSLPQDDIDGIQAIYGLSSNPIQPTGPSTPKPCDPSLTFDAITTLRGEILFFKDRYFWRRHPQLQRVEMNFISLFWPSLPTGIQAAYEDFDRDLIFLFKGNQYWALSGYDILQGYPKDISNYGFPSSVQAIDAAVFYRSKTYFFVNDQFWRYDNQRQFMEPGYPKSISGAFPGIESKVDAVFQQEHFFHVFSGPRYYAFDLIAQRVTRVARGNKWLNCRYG
# Procedure: as §1, §3, §4, §5, §6, §7
# [5] = target: hMMP-3 (Homo sapiens, UniProt P08254); experiment: as above; format: biochemical; conditions: room temperature, pH 7.5
# Chain of hMMP-3 (P08254 100-477): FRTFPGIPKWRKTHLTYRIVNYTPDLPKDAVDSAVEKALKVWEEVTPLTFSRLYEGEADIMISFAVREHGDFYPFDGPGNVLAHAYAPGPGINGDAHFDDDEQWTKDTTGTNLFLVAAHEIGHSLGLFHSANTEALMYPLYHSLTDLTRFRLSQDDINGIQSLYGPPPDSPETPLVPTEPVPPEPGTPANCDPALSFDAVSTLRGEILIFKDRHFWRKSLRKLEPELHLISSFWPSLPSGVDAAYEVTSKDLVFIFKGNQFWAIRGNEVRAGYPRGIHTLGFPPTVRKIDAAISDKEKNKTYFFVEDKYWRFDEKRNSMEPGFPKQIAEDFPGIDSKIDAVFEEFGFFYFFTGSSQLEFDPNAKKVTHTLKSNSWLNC
# Procedure: as §1, §3, §4, §5, §6, §7
# [6] = target: T3, hMMP-2 (Homo sapiens, UniProt P08253); experiment: as above; format: biochemical; conditions: room temperature, pH 7.5
# T3 sequence (P08253 110-660): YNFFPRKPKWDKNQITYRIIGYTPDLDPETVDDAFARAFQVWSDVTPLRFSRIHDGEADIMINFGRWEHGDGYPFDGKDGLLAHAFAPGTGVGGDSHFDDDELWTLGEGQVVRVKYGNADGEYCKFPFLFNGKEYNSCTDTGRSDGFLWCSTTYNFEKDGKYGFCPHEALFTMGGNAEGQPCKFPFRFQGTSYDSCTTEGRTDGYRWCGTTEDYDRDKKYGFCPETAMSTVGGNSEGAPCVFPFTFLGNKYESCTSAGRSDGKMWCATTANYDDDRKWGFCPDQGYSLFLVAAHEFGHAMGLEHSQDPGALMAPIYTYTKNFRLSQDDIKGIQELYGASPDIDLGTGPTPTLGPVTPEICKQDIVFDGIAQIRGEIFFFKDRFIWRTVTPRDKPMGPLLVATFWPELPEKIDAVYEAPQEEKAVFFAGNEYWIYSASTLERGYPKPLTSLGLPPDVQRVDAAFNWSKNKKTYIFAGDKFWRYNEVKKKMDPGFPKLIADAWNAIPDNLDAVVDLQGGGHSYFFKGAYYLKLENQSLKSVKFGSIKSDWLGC
# Procedure: as §1, §3, §4, §5, §6, §7
# [7] = tested on: advanced, rapidly progressive, treatment-refractory solid tumor cancers; conditions: cited from earlier work
Compound,IC50 [1],IC50 [2],IC50 [3],IC50 [4],IC50 [5],IC50 [6],most common drug-related toxicity ([7]; clinical trials in patients),"effect on cancer-specific antigens used as surrogate markers for biological activity ([7]; patients with colorectal, pancreatic, ovarian, prostate cancers)"
C[C@H](C(=O)NO)N(CCN1CCOCC1)S(=O)(=O)c1ccc(NC(=O)C2CCCCC2)cc1 [Example 6],0.25 µM,> 10 µM,3.5 µM,–,–,–,–,–
CC(C)[C@H](C(=O)NO)N(CCN1CCOCC1)S(=O)(=O)c1ccc(NC(=O)c2ccc(Br)cc2)cc1 [Example 13],0.0004 µM,0.88 µM,0.0019 µM,–,–,–,–,–
CCCCc1ccc(C(=O)Nc2ccc(S(=O)(=O)N(CCN3CCOCC3)[C@@H](C(=O)NO)C(C)C)cc2)cc1 [Example 8],0.0001 µM,4 µM,0.031 µM,0.0258 µM,0.05 µM,–,–,–
CCCCCc1ccc(C(=O)Nc2ccc(S(=O)(=O)N[C@H](Cc3ccccc3)C(=O)NO)cc2)cc1 [Example 14],< 0.0001 µM,> 10 µM,0.161 µM,0.034 µM,0.03 µM,< 0.0001 µM,–,–
"CCCCCCc1ccc(C(=O)Nc2ccc(S(=O)(=O)N(CCN3CCOCC3)[C@@H](C(=O)NO)C(C)C)cc2)cc1 [Example 10a, (R)-4-Hexyl-N-[4-[[[1-(hydroxyamino)-carbonyl]-2-methylpropyl][2-(4-morpholinyl)ethyl]amino]sulfonyl]phenylbenzamide]",–,–,–,0.0026 µM,0.18 µM,< 0.0001 µM,–,–
"C[C@H](C(=O)NO)N(CCN1CCOCC1)S(=O)(=O)c1ccc(NC(=O)c2ccccc2)cc1 [Example 4a, (R)-N-[4-[[[2-(Hydroxyamino)-1-methyl-2-oxoethyl][2-4-morpholinyl)ethyl]amino]sulfonyl]phenyl]benzamide, Monohydrochloride]",0.0022 µM,–,0.024 µM,–,–,–,–,–
CC(C)[C@H](C(=O)NO)N(CCN1CCOCC1)S(=O)(=O)c1ccc(NC(=O)c2ccccc2)cc1 [Example 12],0.0114 µM,3.4 µM,0.245 µM,0.0123 µM,0.8 µM,–,–,–
CNC(=O)[C@@H](NC(=O)[C@H](CC(C)C)[C@H](O)C(=O)NO)C(C)(C)C [marimastat],–,–,–,–,–,–,musculoskeletal pain and stiffness,dose-related reduction in the rise of cancer-specific antigens
CCCCCc1ccc(C(=O)Nc2ccc(S(=O)(=O)N(CCN3CCOCC3)[C@H](Cc3ccccc3)C(=O)NO)cc2)cc1 [Example 15],< 0.0001 µM,> 10 µM,0.286 µM,0.241 µM,0.14 µM,< 0.0001 µM,–,–
C[C@H](C(=O)NO)N(CCN1CCOCC1)S(=O)(=O)c1ccc(NC(=O)c2ccccc2)cc1 [Example 4],0.0025 µM,> 10 µM,0.02 µM,–,–,–,–,–
CCCc1ccc(C(=O)Nc2ccc(S(=O)(=O)N(CCN3CCOCC3)[C@@H](C(=O)NO)C(C)C)cc2)cc1 [Example 7],0.0003 µM,4 µM,0.0045 µM,0.009 µM,0.09 µM,–,–,–
CCCCCc1ccc(C(=O)Nc2ccc(S(=O)(=O)N(CCN3CCOCC3)[C@@H](C(=O)NO)C(C)C)cc2)cc1 [Example 9],< 0.0001 µM,4 µM,0.2 µM,0.008 µM,0.055 µM,< 0.0001 µM,–,–
CCCCCCc1ccc(C(=O)Nc2ccc(S(=O)(=O)N(CCN3CCOCC3)[C@@H](C(=O)NO)C(C)C)cc2)cc1 [Example 10],< 0.0001 µM,5.6 µM,0.35 µM,–,–,–,–,–
C[C@H](C(=O)NO)N(CCN1CCOCC1)S(=O)(=O)c1ccc(NC(=O)c2ccc(Br)cc2)cc1 [Example 5],0.00035 µM,4.85 µM,–,–,–,–,–,–
CCCc1ccc(C(=O)Nc2ccc(S(=O)(=O)N(Cc3cccnc3)[C@@H](C(=O)NO)C(C)C)cc2)cc1 [Example 11],0.0005 µM,> 10 µM,0.024 µM,0.039 µM,0.225 µM,0.0001 µM,–,–
